The target in series [1] is T1, MIF (Mus musculus, UniProt P34884).
T1 construct: from tissue; host or cells: mouse liver (A7); liver, lung and brain of C57BL6 mice (A20)
Nature of the series: Oral bioavailability: ex vivo MIF enzymatic activity in liver, brain and lung after IP and PO dosing. Set-up: species or system C57BL6 mice. On the procedure: The compounds were administered orally (PO) and intraperitoneally (IP) to healthy animals. The inhibition of the MIF liver enzymatic activity determined ex vivo following IP and PO dosing is similar, indicating high oral bioavailability. Furthermore, brain and lung tissues were collected and processed to determine MIF enzymatic activity in these organs. […] Inhibition of MIF enzyme was determined […] following dosing of MIF-002 at 40 mg/kg once a day for three days, both IP and PO (normal C57BL6 mice, n=3). Tissues were collected at sacrifice and processed. Liver, lung, and brain tissues were collected, processed, and used for the determination of MIF enzyme activity. Values are expressed as a percentage calculated using DMSO as control (no inhibition).
Two additional compounds were tested, MIF-035 and MIF-041.

Series [2] deals with T1, MIF. Nature of the series: MIF liver lysates enzymatic activity ex vivo (L-dopachrome tautomerase). The following applies: mice; IP 1 mg in corn oil every day for 3 days; livers 6 hours after last injection; FIG. 1. How it is done:
This experiment, using an ex-vivo approach and the tautomeric reaction of L-dopachrom, was designed to ascertain the level of inhibition of MIF following administration of the compounds of this invention via oral, IV, IP or any other route of administration. Mice were used in the example illustrated below, but other animals could be used as well. Groups of 3 mice were administered IP 1 mg of 4-IPP and ACT-002 resuspended in 100 μl of corn oil every day for 3 days. Mice were sacrificed 6 hours after the last injection and livers were harvested. ˜1 gram pieces of liver were lysed in PBS containing 1 mM NaVO4, 2 mM NaF and a protease inhibitor cocktail (Roche Biochemical, Indianapolis, Ind.) using dounce-homogenization on ice. 500 μg of liver lysates were added to a final volume of 700 μl PBS in plastic cuvettes. 4 mM L-3, 4-dihydroxyphenylalanine methyl ester and 8 mM sodium periodate (Sigma-Aldrich) were combined in a 3:2 ratio to form L-dopachrome methyl ester. 300 μL of L-dopachrome methyl ester was then immediately added to the cuvettes; the OD475 nm was measured 2 min and 4 min after addition of the L-dopachrome.

Another series concerns p53. Nature of the series: p53 up regulation, p53 luciferase assay. In kind it is cell-based. The following applies: 10 μM; FIG. 5. How it is done: The up regulation of p53 was determined using a commercially available p53 luciferase assay kit. 1×10^5 cells/ml were plated in a 24 well plate and allowed to adhere overnight. MIF antagonists were added to the cells at the indicated concentrations for 16 hours and transiently co-transfected with 0.125 μg/well of p53-responsive luciferase promoter plasmid (Promega, Madison, Wis.) together with 0.0125 μg/well Renilla pRL-null plasmid (Promega) using Lipofectamine (Invitrogen) transfection reagent. After 24 hrs, Firefly and Renilla luciferase activities were measured by the Dual Luciferase Reporter Assay System (Promega, Madison, Wis.) on a TD-20/20 luminometer (Turner Designs).

Series [3] deals with DU145 human prostate xenografts. Nature of the series: In vivo efficacy in DU145 xenograft tumor model. On the set-up: species or system athymic nude mice. The following applies: daily IP 40 mg/kg for 4 weeks; FIG. 8. On the procedure: Athymic nude mice at 7-8 weeks of age were used for the study. Mice were housed in microisolator housing, with food and water provided as libitum, and quarantined for 4 days prior to the initiation of the study. DU145 cells were maintained in McCoy's 5A medium supplemented with 10% fetal bovine serum and 2 mM glutamine. Cells at 80% confluence were harvested using 0.25% trypsin/EDTA solution, washed once with PBS and resuspended in a mixture of serum-free medium/Matrigel (1:1 by volume) at a density of 3×10^6 cells/100 μl. 4 groups of 10 mice each were used in the experiment. DU145 cells suspended in 100 μl of a mixture of medium/Matrigel (1:1) were subcutaneously implanted in the right flank region. Animals were monitored for tumor growth daily after cell implantation. When tumor volumes reached 80-100 mm^3, mice were randomized into 4 groups of 10 mice each using only mice having tumor volumes closest to the mean value. Tumor volumes were measured using the formula V=L×W×H×π/6, where L and W represent the longer and shorter diameters of the tumor and H represents the height of the tumor. Treatment began the day after randomization. Act-MIF-001, ACT-MIF-002, and ACT-MIF-003 were administered daily by IP injection at a dose of 40 mg/kg for 4 weeks. Throughout the entire study, tumor volumes were measured twice weekly and body weights once weekly.

A short description of series [4]: Solubility in varying solvents. In kind it is physicochemical. The following applies: 21 °C, 20-22° C.
For series [5], the system named is DU145 human prostate xenografts. Nature of the series: Microvessel density in xenograft tumors (immunohistochemistry). The following applies: end of the DU145 xenograft experiment; FIG. 9. In kind it is in vivo, athymic nude mice. On the procedure: At the end of the experiment described in EXAMPLE 69 above, tumors in each group were removed and sliced. Blood vessel density of the tumor tissues was measured by immunohistochemistry. […] These in vivo results confirmed that the compounds described in this application inhibit angiogenesis.

Series [6] in a line: Caco-2 cell permeability and transport. The following applies: human, Caco-2, pH 7.4. It is filed as in vitro ADME. In outline: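 Caco-2 and MDR1-MDCK monolayers were run in triplicate, apical-to-basolateral and basolateral-to-apical, in modified Hanks buffer pH 7.4 with 1% BSA on the receiver side. Monolayer integrity was checked with atenolol and propranolol. Both sides were sampled at 2 h and quantified by LC/MS-MS.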

Each structure is given as a SMILES string. In brackets after ≈: the same amount, converted by molar mass.

With `COc1ccc(-c2cc(I)ncn2)c(F)c1` [ACT-MIF-002, 4-Iodo-6-(2-fluoro-4-methoxyphenyl)pyrimidine], the “Inhibition of MIF enzymatic activity in brain and lungs” value at MIF [1] (40 mg/kg once a day for three days, IP and PO, FIG. 12) is “inhibits MIF enzymatic activity in both the brain and the lungs”. In addition, the Oral bioavailability result at MIF [1] (judged from ex vivo MIF inhibition after IP and PO dosing) is “orally bioavailable”. The “Crossing of the blood brain barrier” value on MIF [1] (judged from ex vivo MIF inhibition in brain) is “crosses the brain blood barrier”. In addition, at MIF [2], the “MIF liver enzyme inhibition” value is given as “significant in vivo inhibition of MIF”.
With `Fc1ccccc1-c1cc(I)ncn1` [ACT-MIF-003, 4-Iodo-6-(2-fluorophenyl)pyrimidine], the p53 regulation entry in the series on p53 was “implicated in p53 regulation”. Further, the Tumor growth inhibition entry in series [3] is given as “significantly inhibited tumor growth”. Further, the solubility in series [4] (aqueous with cosolvent or surfactant or cyclodextrin, Cremophor) came out at 15 mg/mL (≈ 50 mM); in series [4] (aqueous with cosolvent or surfactant or cyclodextrin, Ethanol/Tween 80), 20 mg/mL (≈ 66.7 mM); in series [4] (oil or lipid, Corn oil), 15 mg/mL (≈ 50 mM); in series [4] (organic solvent or mixture, DMSO), 216 mg/mL (≈ 720 mM); in series [4] (organic solvent or mixture, Ethanol), 85 mg/mL (≈ 283 mM); in series [4] (organic solvent or mixture, PEG-300), 66 mg/mL (≈ 220 mM). The solubility in series [4] (organic solvent or mixture, Propane-diol) worked out at 25 mg/mL (≈ 83.3 mM). Further, the “Microvessel density of tumor tissues” value in series [5] is recorded as “decrease in microvessel density with respect to the tumors of the control group with a statistically meaningful difference”. For the same compound, the efflux ratio at 2 h in series [6] was 1.2.
